Results published in patent US6608086B2, “Dihydropyridines and new uses thereof” (Synaptic Pharmaceutical Corporation, priority 1993, dated 2003).
Where a name gives a salt, the structure may show the parent alone. Read-outs that look alike come from different tables or passages of the source.

How the values were obtained:
[1] = target: T1, α1A Human Adrenergic Receptor (Homo sapiens, UniProt P25100); assay: Radioligand binding, [3H]prazosin, cloned human α1A adrenergic receptor; conditions: pKi alpha-1 1a
T1 construct: The entire coding region of α1A (1719 bp); expressed in transfected cells
T1 sequence (P25100 1-572): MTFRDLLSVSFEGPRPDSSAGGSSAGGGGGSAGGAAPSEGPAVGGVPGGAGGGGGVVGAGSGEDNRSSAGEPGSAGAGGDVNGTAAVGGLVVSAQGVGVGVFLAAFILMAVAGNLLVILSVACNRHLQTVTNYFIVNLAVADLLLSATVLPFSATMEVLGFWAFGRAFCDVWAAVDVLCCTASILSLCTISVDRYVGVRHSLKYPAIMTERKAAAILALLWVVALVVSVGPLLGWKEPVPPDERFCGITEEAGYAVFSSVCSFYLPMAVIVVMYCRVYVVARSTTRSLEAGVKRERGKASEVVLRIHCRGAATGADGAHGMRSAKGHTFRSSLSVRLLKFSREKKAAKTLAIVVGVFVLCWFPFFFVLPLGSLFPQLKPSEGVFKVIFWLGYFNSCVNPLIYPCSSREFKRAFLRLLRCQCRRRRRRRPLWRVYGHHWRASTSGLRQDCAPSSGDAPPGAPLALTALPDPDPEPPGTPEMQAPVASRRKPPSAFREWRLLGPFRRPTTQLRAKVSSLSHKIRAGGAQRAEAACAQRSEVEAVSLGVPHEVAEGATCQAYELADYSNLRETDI
Summary of the method: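 Binding of [3H]prazosin (0.5 nM) was measured at 37° C over 20 min in pH 7.5 Tris/MgCl2/ascorbate buffer, using membrane preparations of LM(tk−) cells expressing cloned human α1A receptor. Filtration through GF/B filters stopped the reaction. 10 μM phentolamine gave nonspecific binding.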

α2C receptor = target: T2, α2C receptor (Homo sapiens, UniProt P18825); assay: Competition binding, [3H]rauwolscine, human α2C receptor
T2 construct: host or cells: LM(tk-) cells, line L-α2C
T2 sequence (P18825 1-462): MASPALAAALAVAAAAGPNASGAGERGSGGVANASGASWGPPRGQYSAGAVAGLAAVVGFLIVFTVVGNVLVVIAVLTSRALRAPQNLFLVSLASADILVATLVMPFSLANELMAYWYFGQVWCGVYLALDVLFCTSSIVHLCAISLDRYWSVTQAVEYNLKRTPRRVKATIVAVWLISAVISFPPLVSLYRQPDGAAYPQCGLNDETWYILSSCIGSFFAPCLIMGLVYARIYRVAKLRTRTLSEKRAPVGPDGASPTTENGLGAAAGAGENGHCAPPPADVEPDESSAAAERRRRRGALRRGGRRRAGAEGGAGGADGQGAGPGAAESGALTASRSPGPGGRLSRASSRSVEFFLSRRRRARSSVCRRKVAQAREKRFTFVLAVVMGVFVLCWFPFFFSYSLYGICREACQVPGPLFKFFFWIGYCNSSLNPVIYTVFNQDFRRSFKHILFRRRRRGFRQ
Summary of the method: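 Lysates of LM(tk−) cells stably expressing each α2 subtype were suspended in 25 mM glycylglycine buffer (pH 7.6 at room temperature). Equilibrium competition binding used 0.5 nM [3H]rauwolscine, with nonspecific binding defined by 10 μM phentolamine; bound radioligand was separated by GF/B filtration.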

L-type calcium channel = target: T3, L-type calcium channel (Rattus norvegicus, UniProt P22002); assay: Competition binding of [3H]nitrendipine to membrane fragments of rat cardiac muscle
T3 construct: membrane fragments of rat cardiac muscle; from tissue; host or cells: rat cardiac muscle membranes

[2] = [3H]prazosin, cloned human α1A receptor, LM(tk−) cell membranes
[3] = pKi alpha-2 2c, [3H]rauwolscine, human α2C receptor, LM(tk−) cells
[4] = [3H]nitrendipine, rat cardiac muscle membrane fragments, L-type calcium channel, read-out: pKi Ca (converted)
[5] = [3H]prazosin, cloned human receptor in LM(tk-) cell membranes, SEM and n in lines below
[6] = [3H]rauwolscine, LM(tk-) cell line L-α2C, SEM and n in lines below, read-out: pKi alpha-2 2c (converted)
[7] = [3H]nitrendipine, rat cardiac muscle membranes, SEM and n in lines below, read-out: pKi Ca (converted)
[8] = [3H]rauwolscine, human α2C receptor, LM(tk−) cells, read-out: pKi alpha-2 2c (converted)

T3 sequence (P22002 whole entry, other chains not shown, the tested form may be a part): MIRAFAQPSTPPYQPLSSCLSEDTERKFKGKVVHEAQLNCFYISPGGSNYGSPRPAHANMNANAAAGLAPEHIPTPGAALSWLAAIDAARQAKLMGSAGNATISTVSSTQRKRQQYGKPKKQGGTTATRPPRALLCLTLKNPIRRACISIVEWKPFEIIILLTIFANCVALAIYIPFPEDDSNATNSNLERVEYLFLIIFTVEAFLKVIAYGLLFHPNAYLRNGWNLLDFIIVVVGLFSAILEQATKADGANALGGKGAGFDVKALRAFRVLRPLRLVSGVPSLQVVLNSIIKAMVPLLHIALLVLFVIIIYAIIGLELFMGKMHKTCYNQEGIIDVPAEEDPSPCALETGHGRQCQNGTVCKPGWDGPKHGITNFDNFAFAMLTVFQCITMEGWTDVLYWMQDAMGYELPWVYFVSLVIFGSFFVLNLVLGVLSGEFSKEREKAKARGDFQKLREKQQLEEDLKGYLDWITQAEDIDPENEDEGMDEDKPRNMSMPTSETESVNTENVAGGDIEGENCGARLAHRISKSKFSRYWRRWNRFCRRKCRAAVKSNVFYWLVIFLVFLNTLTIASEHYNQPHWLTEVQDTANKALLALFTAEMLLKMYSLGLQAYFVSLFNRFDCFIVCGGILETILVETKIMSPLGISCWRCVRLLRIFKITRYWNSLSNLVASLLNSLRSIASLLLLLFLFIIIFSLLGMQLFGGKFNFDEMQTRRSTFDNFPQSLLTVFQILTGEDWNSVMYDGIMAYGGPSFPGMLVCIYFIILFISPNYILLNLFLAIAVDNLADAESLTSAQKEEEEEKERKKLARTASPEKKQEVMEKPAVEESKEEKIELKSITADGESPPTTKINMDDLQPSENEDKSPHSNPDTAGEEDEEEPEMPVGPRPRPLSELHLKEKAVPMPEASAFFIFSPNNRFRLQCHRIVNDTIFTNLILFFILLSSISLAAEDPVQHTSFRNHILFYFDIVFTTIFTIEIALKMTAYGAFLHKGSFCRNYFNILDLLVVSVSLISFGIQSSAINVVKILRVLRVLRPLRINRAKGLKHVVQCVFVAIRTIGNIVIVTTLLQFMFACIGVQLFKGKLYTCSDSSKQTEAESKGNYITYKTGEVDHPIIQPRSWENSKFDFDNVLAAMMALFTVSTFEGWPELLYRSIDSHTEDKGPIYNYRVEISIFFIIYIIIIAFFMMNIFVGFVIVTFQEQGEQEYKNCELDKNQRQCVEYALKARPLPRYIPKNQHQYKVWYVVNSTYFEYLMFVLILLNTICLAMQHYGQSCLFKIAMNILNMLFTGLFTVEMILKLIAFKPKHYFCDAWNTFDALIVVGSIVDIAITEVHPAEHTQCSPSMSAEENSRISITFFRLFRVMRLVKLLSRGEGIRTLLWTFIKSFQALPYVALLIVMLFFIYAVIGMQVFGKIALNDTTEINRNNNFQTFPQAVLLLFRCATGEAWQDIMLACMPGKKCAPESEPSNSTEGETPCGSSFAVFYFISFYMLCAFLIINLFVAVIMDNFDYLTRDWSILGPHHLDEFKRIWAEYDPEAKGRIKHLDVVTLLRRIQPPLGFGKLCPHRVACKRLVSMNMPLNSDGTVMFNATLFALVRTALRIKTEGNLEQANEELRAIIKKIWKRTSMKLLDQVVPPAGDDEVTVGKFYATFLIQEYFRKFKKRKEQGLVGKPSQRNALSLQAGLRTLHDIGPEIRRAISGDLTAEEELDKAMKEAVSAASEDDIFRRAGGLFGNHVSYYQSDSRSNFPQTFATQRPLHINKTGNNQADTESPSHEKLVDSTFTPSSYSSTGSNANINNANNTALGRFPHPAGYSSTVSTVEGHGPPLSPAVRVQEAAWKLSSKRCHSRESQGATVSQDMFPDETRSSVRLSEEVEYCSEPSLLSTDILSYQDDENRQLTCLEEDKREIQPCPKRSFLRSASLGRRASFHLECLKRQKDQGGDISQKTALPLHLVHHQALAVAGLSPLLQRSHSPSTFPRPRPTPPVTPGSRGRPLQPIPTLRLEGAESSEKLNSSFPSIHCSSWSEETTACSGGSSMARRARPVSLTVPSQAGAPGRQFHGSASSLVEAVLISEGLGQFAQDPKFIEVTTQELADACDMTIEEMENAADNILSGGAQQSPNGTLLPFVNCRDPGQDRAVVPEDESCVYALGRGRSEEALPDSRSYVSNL
T3 sequence (P54290 25-944 partner limits assumed, other chains not shown): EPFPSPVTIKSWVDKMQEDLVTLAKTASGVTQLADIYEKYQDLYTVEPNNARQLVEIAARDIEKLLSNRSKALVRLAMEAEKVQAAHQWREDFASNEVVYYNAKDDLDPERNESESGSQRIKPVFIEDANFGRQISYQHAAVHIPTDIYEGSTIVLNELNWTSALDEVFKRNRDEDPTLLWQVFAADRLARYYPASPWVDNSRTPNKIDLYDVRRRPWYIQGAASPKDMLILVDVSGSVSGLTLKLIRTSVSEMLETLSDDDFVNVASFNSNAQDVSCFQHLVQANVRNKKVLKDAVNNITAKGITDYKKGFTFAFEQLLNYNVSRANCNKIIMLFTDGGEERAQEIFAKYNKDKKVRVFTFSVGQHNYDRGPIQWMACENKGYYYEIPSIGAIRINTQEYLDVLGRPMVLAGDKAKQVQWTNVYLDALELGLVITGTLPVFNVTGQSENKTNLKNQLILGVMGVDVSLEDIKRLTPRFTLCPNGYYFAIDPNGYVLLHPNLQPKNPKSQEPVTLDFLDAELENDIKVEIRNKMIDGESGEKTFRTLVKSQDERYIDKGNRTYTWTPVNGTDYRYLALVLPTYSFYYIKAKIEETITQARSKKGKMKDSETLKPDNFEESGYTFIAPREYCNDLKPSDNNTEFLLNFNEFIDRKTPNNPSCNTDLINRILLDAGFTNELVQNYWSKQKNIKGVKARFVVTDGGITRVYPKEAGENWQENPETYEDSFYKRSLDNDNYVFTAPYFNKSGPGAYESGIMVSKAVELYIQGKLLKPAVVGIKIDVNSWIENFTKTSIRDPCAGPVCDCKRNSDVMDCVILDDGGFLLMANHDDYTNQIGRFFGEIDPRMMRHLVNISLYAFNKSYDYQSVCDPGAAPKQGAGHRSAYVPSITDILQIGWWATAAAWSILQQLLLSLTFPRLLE
T3 sequence (P54290 945-1091 partner limits assumed, other chains not shown): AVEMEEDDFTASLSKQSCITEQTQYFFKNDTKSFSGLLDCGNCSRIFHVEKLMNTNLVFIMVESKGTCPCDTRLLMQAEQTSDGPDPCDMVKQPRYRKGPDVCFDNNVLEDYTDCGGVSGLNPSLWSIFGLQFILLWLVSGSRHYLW

Row | SMILES | Ki [1] | Ki (α2C receptor; pKi alpha-2 2c) | Ki (L-type calcium channel; pKi Ca) | further results
1 | CCC1=C(C(=O)NCCCN2CCC(c3ccccc3)(c3ccccc3)CC2)C(c2cccc(OC)c2)C(C(N)=O)=C(C)N1 (stereo not drawn) [Example 113, 5-Carboxamide-2-ethyl-1,4-dihydro-4-(3-methoxyphenyl)-6-methyl-3-(N-(3-(4,4-diphenylpiperidin-1-yl)propyl)carboxamido)-pyridine] |  |  |  | Ki [1, 2]: 0.692 µM; Ki (α2C receptor; [3]): 0.316 µM; Ki (L-type calcium channel; [4]): 1000 µM
2 | COC(=O)C1=C(C)NC(C)=C(C(=O)NCCCN2CCC(c3ccccc3)(c3ccccc3)CC2)C1c1ccc(C#N)cc1 (stereo not drawn) [Example 12, 4-(4-Cyanophenyl)-1,4-dihydro-3-methoxycarbonyl-2,6-dimethyl-5-(N-(3-(4,4-diphenylpiperidin-1-yl)propyl)carboxamido)pyridine] | 0.38 µM | 0.871 µM | 3.8 µM | 
3 | CCC1=C(C(N)=O)C(c2ccc([N+](=O)[O-])cc2)C(C(=O)NCCCN2CCC(C#N)(c3ccccc3)CC2)=C(CC)N1 (single isomer, unassigned; (-)) [(−)-102] |  |  |  | Ki [1, 2]: 6.76 µM; Ki (α2C receptor; [3]): 1.05 µM; Ki (L-type calcium channel; [4]): 0.55 µM
4 | COC(=O)C1=C(C)NC(C)=C(C(=O)NCCCN2CCC(c3ccccc3)(c3ccccc3)CC2)C1c1ccoc1 (stereo not drawn) [Example 23, 4-(3-Furyl)-1,4-dihydro-3-methoxycarbonyl-2,6-dimethyl-5-(N-(3-(4,4-diphenylpiperidin-1-yl)propyl)carboxamide)pyridine] |  |  |  | Ki [1, 5]: 0.646 µM; Ki (α2C receptor; [6]): 0.468 µM; Ki (L-type calcium channel; [7]): 0.288 µM
5 | CCC1=C(C(N)=O)C(c2ccc([N+](=O)[O-])cc2)C(C(=O)NCCCN2CCC(c3ccc(OC)cc3)(c3ccc(OC)cc3)CC2)=C(CC)N1 (stereo not drawn) [Example 103, 5-Carboxamido-2,6-diethyl-1,4-dihydro-3-{N-[3-(4,4-bis-(4-methoxyphenyl)piperidin-1-yl)propyl]}carboxamido}-4-(4-nitrophenyl)pyridine hydrochloride] | 2.51 µM | 0.269 µM | 0.178 µM | 
6 | COC(=O)C1=C(C)NC(C)=C(C(=O)NCCCN2CCC(c3ccccc3)(c3ccccc3)CC2)C1c1ccc(I)cc1 (stereo not drawn) [Example 13, 1,4-Dihydro-4-(4-iodophenyl)-3-methoxycarbonyl-2,6-dimethyl-5-(N-(3-(4,4-diphenylpiperidin-1-yl)propyl)carboxamido)pyridine] | 0.389 µM | 0.646 µM | 8.91 µM | 
7 | CCC1=C(C(N)=O)C(c2ccc([N+](=O)[O-])cc2)C(C(=O)NCCCN2CCC3(CC2)C(=O)NCN3c2ccccc2)=C(CC)N1 (stereo not drawn) [Example 105, 5-Carboxamido-2,6-diethyl-1,4-dihydro-4-(4-nitrophenyl)-3-{N-[3-(1-phenyl-4-oxo-1,3,8-triazaspiro[4.3]decan-8-yl)propyl]}carboxamidopyridine hydrochloride hydrate] | 2.45 µM | 1.38 µM | 6.61 µM | 
8 | COC(=O)C1=C(C)NC(C)=C(C(=O)NCCCN2CCC(c3ccccc3)(c3ccccc3)CC2)C1c1ccc(Cl)c(Cl)c1 (stereo not drawn) [Example 24, 4-(3,4-Dichlorophenyl)-1,4-dihydro-3-methoxycarbonyl-2,6-dimethyl-5-(3-(D 44-diphenylpiperidin-1-yl)propylcarboxamido)pyridine] | 0.324 µM | 0.158 µM | 1.95 µM | 
9 | COC(=O)C1=C(C)NC(C)=C(C(=O)NCCCN2CCC(c3ccccc3)(c3ccccc3)CC2)C1c1cc[n+]([O-])cc1 (stereo not drawn) [Example 9, 1,4-Dihydro-3-methoxycarbonyl-2,6-Dimethyl-4-(1-oxido-4-pyridyl)-5-(N-(3-(4,4-diphenylpiperidin-1-yl)propyl)carboxamido)pyridine] |  |  |  | Ki [1, 5]: 1.7 µM; Ki (α2C receptor; [6]): 1.32 µM; Ki (L-type calcium channel; [7]): 19.1 µM
10 | CCC1=C(C(N)=O)C(c2ccc([N+](=O)[O-])cc2)C(C(=O)NCCCN2CCC(C)(c3ccccc3)CC2)=C(CC)N1 (stereo not drawn) [Example 106, 5-Carboxamido-2,6-diethyl-1,4-dihydro-3-{N-[3-(4-Methyl-4-phenylpiperidin-1-yl)propyl]}carboxamido-4-(4-nitrophenyl)pyridine hydrochloride hydrate] |  |  |  | Ki [1, 2]: 2.4 µM; Ki (α2C receptor; [8]): 0.295 µM; Ki (L-type calcium channel; [4]): 1000 µM
11 | CC1=C(C#N)C(c2ccc([N+](=O)[O-])cc2)C(C(=O)NCCCN2CCC(c3ccccc3)(c3ccccc3)CC2)=C(C)N1 (stereo not drawn) [Example 37] | 0.692 µM | 0.575 µM | 1.35 µM | 
12 | COC(=O)C1=C(C)NC(C)=C(C(=O)NCCCN2CCC(c3ccccc3)(c3ccccc3)CC2)C1c1ccc(F)cc1 (stereo not drawn) [Example 20, 4-(4-Fluorophenyl)-1,4-dihydro-3-methoxycarbonyl-2,6-dimethyl-5-(N-(3-(4,4-diphenylpiperidin-1-yl)propyl)carboxamido)pyridine] | 1.35 µM | 0.813 µM | 1.15 µM | 
13 | COC(=O)C1=C(C)NC(C)=C(C(=O)NCCCN2CCC(c3ccccc3)(c3ccccc3)CC2)C1c1ccc2ccccc2c1 (stereo not drawn) [Example 22] | 0.741 µM | 0.631 µM | 0.372 µM | 
14 | COC(=O)C1=C(C)NC(C)=C(C(=O)NCCCN2CCC(c3ccccc3)(c3ccccc3)CC2)C1c1ccc(Cl)cc1 (stereo not drawn) [Example 10, 4-(4-Chlorophenyl)-1,4-dihydro-5-methoxycarbonyl-2,6-Dimethyl-5-(N-(3-(4,4-diphenylpiperidin-1-yl)propyl)carboxamido)pyridine] | 0.447 µM | 1.23 µM | 7.59 µM | 
15 | CC1=C(C(N)=O)C(c2cccc([N+](=O)[O-])c2)C(C(=O)NCCCN2CCC(c3ccccc3)(c3ccccc3)CC2)=C(C)N1 (stereo not drawn) [Example 61, 5-Carboxamido-1,4-dihydro-2,6-dimethyl-4-(3-nitrophenyl)-3-{N-[3-(4,4-diphenylpiperidin-1-yl)propyl]}carboxamidopyridine] |  |  |  | Ki [1, 5]: 0.851 µM; Ki (α2C receptor; [6]): 0.479 µM; Ki (L-type calcium channel; [7]): 10.2 µM
16 | COC(=O)C1=C(C)NC(c2ccoc2)=C(C(=O)NCCCN2CCC(c3ccccc3)(c3ccccc3)CC2)C1c1ccc([N+](=O)[O-])cc1 (stereo not drawn) [Example 43, 2-(Furan-3-yl)-, 4-dihydro-5-methoxycarbonyl-6-methyl-4-(4-nitrophenyl)-3-(N-(3-(4,4-diphenylpiperidin-1-yl)propyl)carboxamidopyridine, hydrochloride salt] |  |  |  | Ki [1, 5]: 0.316 µM; Ki (α2C receptor; [6]): 0.398 µM; Ki (L-type calcium channel; [7]): 18.6 µM
17 | CC1=C(C(=O)NCCCN2CCC(c3ccccc3)(c3ccccc3)CC2)C(c2ccc([N+](=O)[O-])cc2)C(C(=O)NC(C)C)=C(C)N1 (stereo not drawn) [Example 156, 1,4-Dihydro-3-(N-isopropyl) carboxamido-2,6-dimethyl-4-(4-nitrophenyl)-5-{N-[3-(^414-diphenylpiperidin-1-yl)propyl]}carboxamidopyridine] |  |  |  | Ki [1, 2]: 1.32 µM; Ki (α2C receptor; [8]): 0.219 µM; Ki (L-type calcium channel; [4]): 75.9 µM
18 | CC(C)C1=C(C(N)=O)C(c2ccc([N+](=O)[O-])cc2)C(C(=O)NCCCN2CCC(c3ccccc3)(c3ccccc3)CC2)=C(C(C)C)N1 (stereo not drawn) [Example 127] |  |  |  | Ki [1, 2]: 0.355 µM; pKi alpha-2 2c (α2C receptor; [3H]rauwolscine, human α2C receptor, LM(tk−) cells): 6.37; Ki (L-type calcium channel; [4]): 1000 µM
